# Results published in ChEMBL document CHEMBL1156654, “Antineoplastic agents. 552. Oxidation of combretastatin A-1: trapping the o-quinone intermediate considered the metabolic product of the corresponding phosphate prodrug” (2008).
# Key:
# Assay type in all cases: functional
# [1] = tested on: P388; test: Growth inhibition of mouse P388 cells; settings: read-out: ED50 (the source's name)
# [2] = Antitumor activity against mouse MHEC5T cells xenografted in SCID mouse assessed as reduction in tumor blood flow at 100 mg/kg after 72 hrs; design: scale not given: the % may be the effect or the level left
# [3] = Antitumor activity against mouse MHEC5T cells xenografted in SCID mouse assessed as reduction in tumor blood flow at 100 mg/kg after 1 hrs; design: scale not given: the % may be the effect or the level left
# [4] = Antitumor activity against mouse MHEC5T cells xenografted in SCID mouse assessed as reduction in tumor blood flow at 100 mg/kg after 24 hrs; design: scale not given: the % may be the effect or the level left
Compound,EC50 [1],Activity [2],Activity [3],Activity [4]
COc1cc2nc3c(/C=C\c4cc(OC)c(OC)c(OC)c4)ccc(OC)c3nc2cc1OC,0.2 µg/mL,–,–,–
COc1cc(/C=C\c2ccc(OC)c3nc4ccccc4nc23)cc(OC)c1OC,0.2 µg/mL,–,–,–
COc1cc(/C=C\c2ccc(OC)c(OP(=O)([O-])[O-])c2OP(=O)([O-])[O-])cc(OC)c1OC.[Na+].[Na+].[Na+].[Na+],–,27%,50%,90%
